Experimental data taken from ChEMBL document CHEMBL1152842, “Synthesis, Raman, FT-IR, NMR spectroscopic data and antimicrobial activity of mixed aza-oxo-thia macrocyclic compounds” (2009).

Tests used:
Format in all cases: functional
Proteus vulgaris [1] = test: Antibacterial activity against Proteus vulgaris ATCC 8427 at 10 units after 24 hrs by disk diffusion method
Bacillus cereus [2] = test: Antibacterial activity against Bacillus cereus ATCC 7064 at 10 units after 24 hrs by disk diffusion method
Klebsiella pneumoniae [3] = test: Antibacterial activity against Klebsiella pneumoniae UC57 at 10 units after 24 hrs by disk diffusion method
Listeria monocytogenes [4] = test: Antibacterial activity against Listeria monocytogenes ATCC 15313 at 10 units after 24 hrs by disk diffusion method
Micrococcus luteus [5] = test: Antibacterial activity against Micrococcus luteus La 2971 at 10 units after 24 hrs by disk diffusion method
[6] = system: Mycolicibacterium smegmatis; test: Antibacterial activity against Mycobacterium smegmatis CCM 2067 at 10 units after 24 hrs by disk diffusion method
Escherichia coli [7] = test: Antibacterial activity against Escherichia coli ATCC 11230 at 10 units after 24 hrs by disk diffusion method
Pseudomonas aeruginosa [8] = test: Antibacterial activity against Pseudomonas aeruginosa ATCC 27853 at 10 units after 24 hrs by disk diffusion method
Staphylococcus aureus [9] = test: Antibacterial activity against Staphylococcus aureus ATCC 6538 at 10 units after 24 hrs by disk diffusion method
Listeria monocytogenes [10] = test: Antibacterial activity against Listeria monocytogenes ATCC 15313 at 30 ug after 24 hrs by disk diffusion method; settings: ATCC 15313, 24 h, read-out: IZ
Escherichia coli [11] = test: Antibacterial activity against Escherichia coli ATCC 11230 at 30 ug after 24 hrs by disk diffusion method; settings: ATCC 11230, 24 h, read-out: IZ
[12] = system: Mycolicibacterium smegmatis; test: Antibacterial activity against Mycobacterium smegmatis CCM 2067 at 30 ug after 24 hrs by disk diffusion method; settings: CCM 2067, 24 h, read-out: IZ
Bacillus cereus [13] = test: Antibacterial activity against Bacillus cereus ATCC 7064 at 30 ug after 24 hrs by disk diffusion method; settings: ATCC 7064, 24 h, read-out: IZ
Pseudomonas aeruginosa [14] = test: Antibacterial activity against Pseudomonas aeruginosa ATCC 27853 at 30 ug after 24 hrs by disk diffusion method; settings: ATCC 27853, 24 h, read-out: IZ
Staphylococcus aureus [15] = test: Antibacterial activity against Staphylococcus aureus ATCC 6538 at 30 ug after 24 hrs by disk diffusion method; settings: ATCC 6538, 24 h, read-out: IZ
Proteus vulgaris [16] = test: Antibacterial activity against Proteus vulgaris ATCC 8427 at 30 ug after 24 hrs by disk diffusion method; settings: ATCC 8427, 24 h, read-out: IZ
Micrococcus luteus [17] = test: Antibacterial activity against Micrococcus luteus La 2971 at 30 ug after 24 hrs by disk diffusion method; settings: read-out: IZ
Klebsiella pneumoniae [18] = test: Antibacterial activity against Klebsiella pneumoniae UC57 at 30 ug after 24 hrs by disk diffusion method; settings: read-out: IZ
Klebsiella pneumoniae [19] = test: Antibacterial activity against Klebsiella pneumoniae UC57 at 1 ug after 24 hrs by disk diffusion method; settings: read-out: IZ
[20] = system: Mycolicibacterium smegmatis; test: Antibacterial activity against Mycobacterium smegmatis CCM 2067 at 1 ug after 24 hrs by disk diffusion method; settings: CCM 2067, 24 h, read-out: IZ
Micrococcus luteus [21] = test: Antibacterial activity against Micrococcus luteus La 2971 at 1 ug after 24 hrs by disk diffusion method; settings: read-out: IZ
Escherichia coli [22] = test: Antibacterial activity against Escherichia coli ATCC 11230 at 1 ug after 24 hrs by disk diffusion method; settings: ATCC 11230, 24 h, read-out: IZ
Proteus vulgaris [23] = test: Antibacterial activity against Proteus vulgaris ATCC 8427 at 1 ug after 24 hrs by disk diffusion method; settings: ATCC 8427, 24 h, read-out: IZ
Listeria monocytogenes [24] = test: Antibacterial activity against Listeria monocytogenes ATCC 15313 at 1 ug after 24 hrs by disk diffusion method; settings: ATCC 15313, 24 h, read-out: IZ
Bacillus cereus [25] = test: Antibacterial activity against Bacillus cereus ATCC 7064 at 1 ug after 24 hrs by disk diffusion method; settings: ATCC 7064, 24 h, read-out: IZ
Pseudomonas aeruginosa [26] = test: Antibacterial activity against Pseudomonas aeruginosa ATCC 27853 at 1 ug after 24 hrs by disk diffusion method; settings: ATCC 27853, 24 h, read-out: IZ
Staphylococcus aureus [27] = test: Antibacterial activity against Staphylococcus aureus ATCC 6538 at 1 ug after 24 hrs by disk diffusion method; settings: ATCC 6538, 24 h, read-out: IZ
Proteus vulgaris [28] = test: Antibacterial activity against Proteus vulgaris ATCC 8427 after 24 hrs by twofold serial dilution method
[29] = system: Mycolicibacterium smegmatis; test: Antibacterial activity against Mycobacterium smegmatis CCM 2067 after 24 hrs by twofold serial dilution method
Staphylococcus aureus [30] = test: Antibacterial activity against Staphylococcus aureus ATCC 6538 after 24 hrs by twofold serial dilution method
Micrococcus luteus [31] = test: Antibacterial activity against Micrococcus luteus La 2971 after 24 hrs by twofold serial dilution method
Pseudomonas aeruginosa [32] = test: Antibacterial activity against Pseudomonas aeruginosa ATCC 27853 after 24 hrs by twofold serial dilution method
Listeria monocytogenes [33] = test: Antibacterial activity against Listeria monocytogenes ATCC 15313 after 24 hrs by twofold serial dilution method
Escherichia coli [34] = test: Antibacterial activity against Escherichia coli ATCC 11230 after 24 hrs by twofold serial dilution method
Klebsiella pneumoniae [35] = test: Antibacterial activity against Klebsiella pneumoniae UC57 after 24 hrs by twofold serial dilution method
Bacillus cereus [36] = test: Antibacterial activity against Bacillus cereus ATCC 7064 after 24 hrs by twofold serial dilution method
[37] = system: Hanseniaspora guilliermondii; test: Antifungal activity against Hanseniaspora guilliermondii DSM 3432 after 48 hrs by twofold serial dilution method
Debaryomyces hansenii [38] = test: Antifungal activity against Debaryomyces hansenii DSM 70238 after 48 hrs by twofold serial dilution method
Rhodotorula mucilaginosa [39] = test: Antifungal activity against Rhodotorula rubra DSM 70403 at 1 ug after 72 hrs by disk diffusion method
Candida albicans = test: Antifungal activity against Candida albicans ATCC 10231 after 48 hrs by twofold serial dilution method
Kluyveromyces marxianus [40] = test: Antifungal activity against Kluyveromyces fragilis NRRL 2415 after 48 hrs by twofold serial dilution method
Debaryomyces hansenii [41] = test: Antifungal activity against Debaryomyces hansenii DSM 70238 at 1 ug after 72 hrs by disk diffusion method
[42] = system: Hanseniaspora guilliermondii; test: Antifungal activity against Hanseniaspora guilliermondii DSM 3432 at 1 ug after 72 hrs by disk diffusion method
Rhodotorula mucilaginosa [43] = test: Antifungal activity against Rhodotorula rubra DSM 70403 after 48 hrs by twofold serial dilution method
Kluyveromyces marxianus [44] = test: Antifungal activity against Kluyveromyces fragilis NRRL 2415 at 1 ug after 72 hrs by disk diffusion method

CC1(C)S[C@@H]2[C@H](NC(=O)Cc3ccccc3)C(=O)N2[C@H]1C(=O)O [PENICILLIN G]
inhibition zone (IZ) (Proteus vulgaris [1]): 36 mm
inhibition zone (IZ) (Bacillus cereus [2]): 10 mm
inhibition zone (IZ) (Klebsiella pneumoniae [3]): 18 mm
inhibition zone (IZ) (Listeria monocytogenes [4]): 10 mm
inhibition zone (IZ) (Micrococcus luteus [5]): 8 mm
inhibition zone (IZ) [6]: 15 mm
inhibition zone (IZ) (Escherichia coli [7]): 18 mm
inhibition zone (IZ) (Pseudomonas aeruginosa [8]): 14 mm
inhibition zone (IZ) (Staphylococcus aureus [9]): 13 mm

CN(C)[C@@H]1C(O)=C(C(N)=O)C(=O)[C@@]2(O)C(O)=C3C(=O)c4c(O)cccc4[C@@](C)(O)[C@H]3C[C@@H]12 [TETRACYCLINE]
zone of inhibition at 30 µg/disc (Listeria monocytogenes [10]): 28 mm
zone of inhibition at 30 µg/disc (Escherichia coli [11]): 28 mm
zone of inhibition at 30 µg/disc [12]: 24 mm
zone of inhibition at 30 µg/disc (Bacillus cereus [13]): 26 mm
zone of inhibition at 30 µg/disc (Pseudomonas aeruginosa [14]): 25 mm
zone of inhibition at 30 µg/disc (Staphylococcus aureus [15]): 26 mm
zone of inhibition at 30 µg/disc (Proteus vulgaris [16]): 22 mm
zone of inhibition at 30 µg/disc (Micrococcus luteus [17]): 34 mm
zone of inhibition at 30 µg/disc (Klebsiella pneumoniae [18]): 30 mm

CN[C@H](CC(C)C)C(=O)N[C@H]1C(=O)N[C@@H](CC(N)=O)C(=O)N[C@H]2C(=O)N[C@H]3C(=O)N[C@H](C(=O)N[C@H](C(=O)O)c4cc(O)cc(O)c4-c4cc3ccc4O)[C@H](O)c3ccc(c(Cl)c3)Oc3cc2cc(c3O[C@@H]2O[C@H](CO)[C@@H](O)[C@H](O)[C@H]2O[C@H]2C[C@](C)(N)[C@H](O)[C@H](C)O2)Oc2ccc(cc2Cl)[C@H]1O [VANCOMYCIN]
zone of inhibition at 1 µg/disc (Klebsiella pneumoniae [19]): 22 mm
zone of inhibition at 1 µg/disc [20]: 20 mm
zone of inhibition at 1 µg/disc (Micrococcus luteus [21]): 10 mm
zone of inhibition at 1 µg/disc (Escherichia coli [22]): 22 mm
zone of inhibition at 1 µg/disc (Proteus vulgaris [23]): 34 mm
zone of inhibition at 1 µg/disc (Listeria monocytogenes [24]): 26 mm
zone of inhibition at 1 µg/disc (Bacillus cereus [25]): 20 mm
zone of inhibition at 1 µg/disc (Pseudomonas aeruginosa [26]): 18 mm
zone of inhibition at 1 µg/disc (Staphylococcus aureus [27]): 13 mm

GENTAMICIN
MIC (Proteus vulgaris [28]): 25 µg/mL
MIC [29]: 12.5 µg/mL
MIC (Staphylococcus aureus [30]): 25 µg/mL
MIC (Micrococcus luteus [31]): 6.25 µg/mL
MIC (Pseudomonas aeruginosa [32]): 6.25 µg/mL
MIC (Listeria monocytogenes [33]): 12.5 µg/mL
MIC (Escherichia coli [34]): 6.25 µg/mL
MIC (Klebsiella pneumoniae [35]): 6.25 µg/mL
MIC (Bacillus cereus [36]): 6.25 µg/mL

NYSTATIN
MIC [37]: 3.12 µg/mL
MIC (Debaryomyces hansenii [38]): 12.5 µg/mL
inhibition zone (IZ) (Rhodotorula mucilaginosa [39]): 20 mm
MIC (Candida albicans): 6.25 µg/mL
MIC (Kluyveromyces marxianus [40]): 6.25 µg/mL
inhibition zone (IZ) (Debaryomyces hansenii [41]): 16 mm
inhibition zone (IZ) [42]: 21 mm
MIC (Rhodotorula mucilaginosa [43]): 3.12 µg/mL
inhibition zone (IZ) (Kluyveromyces marxianus [44]): 18 mm
